Results from patent US20210161855A1, “5-LIPOXYGENASE ANTAGONISTS” (INSTITUTO DE MEDICINA MOLECULAR JOÃO LOBO ANTUNES, priority 2017, published 2021).

Columns and labels:
5-LO = target: T1, 5-LO (Homo sapiens, UniProt P09917); assay: 5-LO activity in neutrophil homogenates; format: biochemical; parameters: endogenous in cells; host or cells: neutrophils isolated from peripheral blood of healthy adult volunteers; intact or sonicated homogenates; details: neutrophil homogenates, with or without 1 mM DTT
T1 sequence (P09917 1-674): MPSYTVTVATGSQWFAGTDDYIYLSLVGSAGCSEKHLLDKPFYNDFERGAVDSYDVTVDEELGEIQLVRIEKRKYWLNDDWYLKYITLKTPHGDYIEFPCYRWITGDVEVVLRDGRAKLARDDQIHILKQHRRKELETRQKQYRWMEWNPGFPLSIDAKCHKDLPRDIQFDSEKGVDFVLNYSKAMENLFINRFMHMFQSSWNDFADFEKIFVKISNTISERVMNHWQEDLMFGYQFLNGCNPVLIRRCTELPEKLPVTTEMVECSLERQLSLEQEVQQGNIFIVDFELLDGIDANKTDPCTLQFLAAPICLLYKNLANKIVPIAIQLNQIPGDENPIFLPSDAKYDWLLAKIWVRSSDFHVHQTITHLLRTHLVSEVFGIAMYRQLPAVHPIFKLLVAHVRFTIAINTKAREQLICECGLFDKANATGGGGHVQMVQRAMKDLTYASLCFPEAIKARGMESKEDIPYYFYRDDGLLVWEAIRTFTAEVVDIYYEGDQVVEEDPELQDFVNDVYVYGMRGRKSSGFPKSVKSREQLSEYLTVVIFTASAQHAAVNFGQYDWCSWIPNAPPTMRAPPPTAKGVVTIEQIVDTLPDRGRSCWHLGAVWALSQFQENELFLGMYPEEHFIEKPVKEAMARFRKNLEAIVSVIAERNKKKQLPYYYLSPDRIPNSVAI
Procedure: Peripheral blood (University Hospital Jena, Germany) was withdrawn from healthy adult volunteers with consent that had not taken any anti-inflammatory drugs during the last 10 days, by venipuncture in heparinized tubes (16 IE heparin/mL blood). The blood was centrifuged at 4000 g for 20 min at 20° C. for preparation of leukocyte concentrates. Leukocyte concentrates were then subjected to dextran sedimentation and centrifugation on lymphocyte separation medium (LSM 1077, PAA, Colbe, Germany). Contaminating erythrocytes of pelleted neutrophils were removed by hypotonic Iysis. Neutrophils were then washed twice in ice-cold PBS and finally resuspended in PBS pH 7.4 containing 1 mg/mL glucose or in PBS pH 7.4 containing 1 mg/mL glucose plus 1 mM CaCl2 (PGC buffer) (purity>96-97%).
For analysis of 5-LO product formation in corresponding homogenates, neutrophils were resuspended in PBS containing 1 mM EDTA for 5 min at 4° C. and sonicated (4×10 s, 4° C.). Homogenates, corresponding to 5×10^6 cells/mL, were incubated with the test compounds or vehicle (0.1% DMSO) with or without 1 mM DTT for 15 min at 4° C., pre-warmed for 30 s at 37° C., and the reaction was started by the addition of 2 mM CaCl2 plus the indicated concentrations of AA (routinely 20 μM). The reaction was stopped after 10 min and the samples were analyzed as described for intact cells above.
Data are expressed as mean±S.E.M. IC50 values were calculated from averaged measurements at 6 different concentrations of the compound by nonlinear regression using GraphPad Prism software (San Diego, Calif.) one site binding competition. Statistical evaluation of the data was performed by one-way ANOVA followed by a Tukey-Kramer post-hoc test for multiple comparisons respectively. A p value<0.05 (*) was considered significant.

5-lipoxygenase (5-LO) = target: T2, 5-lipoxygenase (5-LO) (Homo sapiens, UniProt P09917); assay: 5-LO inhibition assay, Method A (Cerep), cell-free functional; format: biochemical; details: 150 μM; read-out: 5-LO inhibition at the assayed concentration
T2 sequence (P09917 1-674): T1 sequence (P09917 1-674)
Procedure: Method A: 5-Lipoxygenase (5-LO), 12-lipoxygenase (12-LO) and 15-lipoxygenase-2 (15-LO-2) inhibition assays were performed at Cerep, SA (Celle l'Evescault, France) on a fee-for-service basis (Ref 0772^36, 0883^37 and 0893^38, respectively), as described in Table 1.

EP4 = EP4 (Homo sapiens, UniProt P35408); assay: Prostanoid EP4 receptor antagonism, functional assay; format: cell-based; details: 150 μM
TRPV1 = TRPV1 (Homo sapiens, UniProt Q8NER1); assay: TRPV1 channel antagonism, functional assay; format: cell-based; details: 150 μM
EP3 = target: T3, EP3 (Homo sapiens, UniProt P43115); assay: Prostanoid EP3 receptor antagonism, functional assay; format: cell-based; details: 150 μM
T3 sequence (P43115 1-390): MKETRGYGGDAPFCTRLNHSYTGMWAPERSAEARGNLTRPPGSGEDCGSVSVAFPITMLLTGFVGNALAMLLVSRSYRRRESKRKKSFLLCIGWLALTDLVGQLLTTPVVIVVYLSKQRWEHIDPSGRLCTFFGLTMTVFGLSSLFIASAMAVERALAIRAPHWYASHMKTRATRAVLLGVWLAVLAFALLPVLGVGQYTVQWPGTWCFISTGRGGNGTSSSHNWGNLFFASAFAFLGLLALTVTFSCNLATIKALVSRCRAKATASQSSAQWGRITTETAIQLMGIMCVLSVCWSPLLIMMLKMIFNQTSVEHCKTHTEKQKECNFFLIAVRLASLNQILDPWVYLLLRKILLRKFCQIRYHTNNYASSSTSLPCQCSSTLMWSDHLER

TRPM8 = TRPM8 (Homo sapiens, UniProt Q7Z2W7); assay: TRPM8 channel antagonism, functional assay; format: cell-based; details: 150 μM
Chain of TRPM8 (Q7Z2W7 whole entry, species assumed): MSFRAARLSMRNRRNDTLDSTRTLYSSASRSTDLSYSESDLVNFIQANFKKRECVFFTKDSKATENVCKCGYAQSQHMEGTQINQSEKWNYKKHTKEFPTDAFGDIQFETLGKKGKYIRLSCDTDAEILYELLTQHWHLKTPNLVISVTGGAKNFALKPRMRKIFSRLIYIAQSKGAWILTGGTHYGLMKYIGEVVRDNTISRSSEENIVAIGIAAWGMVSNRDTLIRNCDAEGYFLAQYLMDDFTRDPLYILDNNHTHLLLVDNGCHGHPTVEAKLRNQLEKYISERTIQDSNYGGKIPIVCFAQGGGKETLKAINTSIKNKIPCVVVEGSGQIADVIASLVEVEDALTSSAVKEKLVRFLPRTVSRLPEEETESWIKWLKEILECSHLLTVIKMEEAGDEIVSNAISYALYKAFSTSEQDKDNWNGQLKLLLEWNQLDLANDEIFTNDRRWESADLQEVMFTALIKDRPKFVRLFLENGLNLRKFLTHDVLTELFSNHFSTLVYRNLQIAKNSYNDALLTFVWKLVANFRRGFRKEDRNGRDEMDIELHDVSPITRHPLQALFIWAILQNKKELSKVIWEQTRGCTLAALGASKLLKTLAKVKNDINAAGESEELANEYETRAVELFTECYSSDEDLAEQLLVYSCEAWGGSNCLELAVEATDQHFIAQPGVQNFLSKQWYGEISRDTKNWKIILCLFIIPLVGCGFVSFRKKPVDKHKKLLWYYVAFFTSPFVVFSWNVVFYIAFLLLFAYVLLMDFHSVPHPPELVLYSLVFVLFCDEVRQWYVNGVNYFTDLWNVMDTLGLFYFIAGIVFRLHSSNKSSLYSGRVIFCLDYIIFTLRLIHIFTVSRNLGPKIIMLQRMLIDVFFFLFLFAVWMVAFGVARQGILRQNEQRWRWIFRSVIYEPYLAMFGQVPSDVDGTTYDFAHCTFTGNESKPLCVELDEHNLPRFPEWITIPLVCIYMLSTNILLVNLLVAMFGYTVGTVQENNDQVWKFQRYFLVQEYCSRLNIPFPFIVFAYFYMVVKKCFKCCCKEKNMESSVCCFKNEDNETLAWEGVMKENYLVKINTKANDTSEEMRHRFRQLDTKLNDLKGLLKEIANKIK

Chain of EP4 (P35408 whole entry): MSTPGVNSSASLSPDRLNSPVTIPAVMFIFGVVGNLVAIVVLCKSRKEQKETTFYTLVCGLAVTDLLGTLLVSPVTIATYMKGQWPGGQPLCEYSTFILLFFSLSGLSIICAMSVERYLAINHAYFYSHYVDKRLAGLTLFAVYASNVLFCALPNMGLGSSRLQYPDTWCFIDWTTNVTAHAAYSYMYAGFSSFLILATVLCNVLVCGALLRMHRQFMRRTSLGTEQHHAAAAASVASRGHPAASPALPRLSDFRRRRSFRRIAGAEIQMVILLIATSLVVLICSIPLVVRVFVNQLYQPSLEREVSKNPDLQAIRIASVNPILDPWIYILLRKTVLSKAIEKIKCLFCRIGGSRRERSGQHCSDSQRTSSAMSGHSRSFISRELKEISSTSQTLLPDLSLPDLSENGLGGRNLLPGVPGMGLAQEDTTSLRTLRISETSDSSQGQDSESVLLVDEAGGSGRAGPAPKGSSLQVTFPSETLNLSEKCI
Chain of TRPV1 (Q8NER1 whole entry, species assumed): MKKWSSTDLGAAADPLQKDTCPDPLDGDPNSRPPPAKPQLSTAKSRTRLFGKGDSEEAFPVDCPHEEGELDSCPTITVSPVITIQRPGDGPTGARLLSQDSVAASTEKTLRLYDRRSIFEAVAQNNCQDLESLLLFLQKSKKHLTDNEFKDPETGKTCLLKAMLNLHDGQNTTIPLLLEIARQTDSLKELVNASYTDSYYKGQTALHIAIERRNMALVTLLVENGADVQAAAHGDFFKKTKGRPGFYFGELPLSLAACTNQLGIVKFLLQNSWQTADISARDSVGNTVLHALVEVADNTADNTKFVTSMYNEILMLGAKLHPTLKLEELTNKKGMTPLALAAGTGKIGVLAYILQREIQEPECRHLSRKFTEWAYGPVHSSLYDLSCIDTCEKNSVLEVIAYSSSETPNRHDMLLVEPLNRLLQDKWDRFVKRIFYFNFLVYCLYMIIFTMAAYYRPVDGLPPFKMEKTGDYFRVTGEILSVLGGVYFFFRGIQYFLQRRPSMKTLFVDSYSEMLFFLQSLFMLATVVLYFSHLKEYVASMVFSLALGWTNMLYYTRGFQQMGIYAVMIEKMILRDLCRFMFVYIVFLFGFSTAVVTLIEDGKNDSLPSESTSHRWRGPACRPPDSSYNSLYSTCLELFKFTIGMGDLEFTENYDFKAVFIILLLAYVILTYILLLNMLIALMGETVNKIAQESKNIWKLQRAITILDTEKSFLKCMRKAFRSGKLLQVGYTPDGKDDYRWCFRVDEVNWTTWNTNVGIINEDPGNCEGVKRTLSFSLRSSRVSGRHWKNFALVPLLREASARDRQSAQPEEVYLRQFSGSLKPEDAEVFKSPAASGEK

Dependence of inhibition on DTT (5-LO) | SMILES | inhibition at 150 µM (5-lipoxygenase (5-LO)) [%] | EP4 antagonist effect (EP4) [%] | TRPV1 antagonist effect (TRPV1) [%] | EP3 antagonist effect (EP3) [%] | TRPM8 antagonist effect (TRPM8) [%]
independent of DTT | CC(c1cc2ccccc2s1)N(O)C(N)=O (stereo not drawn) [zileuton, reference compound] | – | – | – | – | –
– | CC(C)=CCC1=C(O)C(=O)c2ccccc2C1=O [Compound 2, 2-hydroxy-3-(3′-methyl-2′-butenyl)-1,4-naphthoquinone] | 87 | 56 | 65 | 50 | 91
